SMILES strings stand for the structures.

The target in the assay is T1, F508del (Homo sapiens, UniProt P13569, DEL508-508).
T1 construct: expressed in transfected cells
T1 sequence (P13569 with tags, fused parts or gaps DEL508-508): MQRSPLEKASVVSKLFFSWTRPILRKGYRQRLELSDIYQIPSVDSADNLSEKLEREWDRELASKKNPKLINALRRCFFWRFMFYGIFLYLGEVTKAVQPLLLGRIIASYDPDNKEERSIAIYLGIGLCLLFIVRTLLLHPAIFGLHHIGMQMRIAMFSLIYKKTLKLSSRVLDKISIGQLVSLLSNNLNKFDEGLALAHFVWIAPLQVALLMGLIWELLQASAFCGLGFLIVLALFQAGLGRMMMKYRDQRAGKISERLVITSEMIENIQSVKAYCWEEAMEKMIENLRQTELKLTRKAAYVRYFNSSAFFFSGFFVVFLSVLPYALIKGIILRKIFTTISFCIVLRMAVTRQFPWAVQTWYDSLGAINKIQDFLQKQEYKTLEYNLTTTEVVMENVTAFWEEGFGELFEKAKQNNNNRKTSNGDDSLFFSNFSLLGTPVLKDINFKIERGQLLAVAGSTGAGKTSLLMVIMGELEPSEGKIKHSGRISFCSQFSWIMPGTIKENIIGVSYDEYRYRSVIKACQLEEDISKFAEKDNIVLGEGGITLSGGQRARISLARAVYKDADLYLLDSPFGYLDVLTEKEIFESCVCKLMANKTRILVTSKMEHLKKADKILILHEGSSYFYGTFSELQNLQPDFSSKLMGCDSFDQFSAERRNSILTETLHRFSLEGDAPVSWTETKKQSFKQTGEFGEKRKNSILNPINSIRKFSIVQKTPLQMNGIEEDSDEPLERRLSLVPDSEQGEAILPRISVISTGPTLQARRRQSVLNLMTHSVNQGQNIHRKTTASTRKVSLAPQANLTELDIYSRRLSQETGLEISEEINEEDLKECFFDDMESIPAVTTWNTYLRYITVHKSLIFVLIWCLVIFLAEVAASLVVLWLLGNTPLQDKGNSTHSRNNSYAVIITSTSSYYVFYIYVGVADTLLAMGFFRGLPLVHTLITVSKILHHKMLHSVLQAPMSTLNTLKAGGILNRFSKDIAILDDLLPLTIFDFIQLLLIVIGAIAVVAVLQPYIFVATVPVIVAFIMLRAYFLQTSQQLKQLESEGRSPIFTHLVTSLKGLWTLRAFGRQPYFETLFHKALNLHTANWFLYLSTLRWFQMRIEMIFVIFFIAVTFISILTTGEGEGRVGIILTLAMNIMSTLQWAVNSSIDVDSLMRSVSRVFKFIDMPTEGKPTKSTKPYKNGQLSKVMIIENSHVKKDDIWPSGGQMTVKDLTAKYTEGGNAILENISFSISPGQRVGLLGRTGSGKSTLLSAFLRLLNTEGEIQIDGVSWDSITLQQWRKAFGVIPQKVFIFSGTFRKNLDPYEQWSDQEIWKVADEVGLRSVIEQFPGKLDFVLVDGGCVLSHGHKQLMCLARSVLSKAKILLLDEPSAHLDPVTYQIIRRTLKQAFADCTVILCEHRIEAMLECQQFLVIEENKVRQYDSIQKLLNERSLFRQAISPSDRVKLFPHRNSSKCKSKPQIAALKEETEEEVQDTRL
Kind of assay: Protocol 1: membrane potential optical assay (FLIPR III, voltage sensing dye), identification of potentiator compounds. It counts as cell-based. Particulars: Table 3, compounds of Table 1. An outline of the steps:
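NIH3T3 F508del cells, 27° C × 24 hrs; compound/DMSO pretreat → redistribution dye load → single forskolin addition with Cl⁻ gradient (gluconate-substituted bath, HEPES pH 7.4). FLIPR III membrane-potential fluorescence read.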
As to `CC(Oc1nc(N2C[C@@H](C)CC2(C)C)c(C(=O)NS(=O)(=O)c2cccc(N)n2)cc1F)C1CCCCC1` (stereo partly drawn) [Compound 1730, N-[(6-amino-2-pyridyl)sulfonyl]-6-(1-cyclohexylethoxy)-5-fluoro-2-[(4S)-2,2,4-trimethylpyrrolidin-1-yl]pyridine-3-carboxamide], the EC30 entry was “+++ (“+++” means <3 uM)”.

With `[2H]C([2H])([2H])C([2H])(COc1ccn(-c2ccc(C(=O)NS(=O)(=O)c3cccnc3N)c(N3C[C@@H](C)CC3(C)C)n2)n1)C([2H])([2H])[2H]` [Compound 1887, N-[(2-amino-3-pyridyl)sulfonyl]-6-[3-[2,3,3,3-tetradeuterio-2-(trideuteriomethyl)propoxy]pyrazol-1-yl]-2-[(4S)-2,2,4-trimethylpyrrolidin-1-yl]pyridine-3-carboxamide], the EC30 result is “+++ (“+++” means <3 uM)”.

Take `Cc1ccc(F)c(-c2ccc(C(=O)NS(=O)(=O)c3ccc[nH]c3=O)c(N3C[C@@H](C)CC3(C)C)n2)c1` [Compound 1946, 6-(2-fluoro-5-methyl-phenyl)-N-[(2-oxo-1H-pyridin-3-yl)sulfonyl]-2-[(4S)-2,2,4-trimethylpyrrolidin-1-yl]pyridine-3-carboxamide]: the EC30 result is listed as “+++ (“+++” means <3 uM)”.

On to `COc1ccc(Oc2cccc(S(=O)(=O)NC(=O)c3cccnc3N3CC(C)CC3(C)C)n2)cc1OC` (stereo not drawn) [Compound 1761, N—[[6-(3,4-dimethoxyphenoxy)-2-pyridyl]sulfonyl]-2-(2,2,4-trimethylpyrrolidin-1-yl)pyridine-3-carboxamide], for which the EC30 result was “++ (“++” means between 3 uM and 10 uM)”.

With `Cc1cc(C)c(Oc2nc(C)ccc2C(=O)NS(=O)(=O)c2cccc(N(C)C)n2)c(C)c1` [Compound 1250, N-[[6-(dimethylamino)-2-pyridyl]sulfonyl]-6-methyl-2-(2,4,6-trimethylphenoxy)pyridine-3-carboxamide], the EC30 result is recorded as “+++ (“+++” means <3 uM)”.

In the case of `CC(C)COc1cc(F)cc(-c2ccc(C(=O)NS(=O)(=O)c3cccc(N)n3)c(N3CC(C)(C)OCC3(C)C)n2)c1` [Compound 1675, N-[(6-amino-2-pyridyl)sulfonyl]-6-(3-fluoro-5-isobutoxy-phenyl)-2-(2,2,5,5-tetramethylmorpholin-4-yl)pyridine-3-carboxamide], the EC30 entry was “++ (“++” means between 3 uM and 10 uM)”.

Turning to `Cc1cc(C)c(Cn2nc(C(C)(C)C)cc2C(=O)NS(=O)(=O)c2ccc(CN)cc2)c(C)c1` [Compound 1670, N-[4-(aminomethyl)phenyl]sulfonyl-5-tert-butyl-2-[(2,4,6-trimethylphenyl)methyl]pyrazole-3-carboxamide], the EC30 entry was “++ (“++” means between 3 uM and 10 uM)”.

For the compound `CCOc1cccc(-c2ccc(C(=O)NS(=O)(=O)c3cccnc3N)c(N3C[C@@H](C)CC3(C)C)n2)c1F` [Compound 1847, N-[(2-amino-3-pyridyl)sulfonyl]-6-(3-ethoxy-2-fluoro-phenyl)-2-[(4S)-2,2,4-trimethylpyrrolidin-1-yl]pyridine-3-carboxamide], the EC30 result was “+++ (“+++” means <3 uM)”.

For the compound `CCCOc1cccc(-c2ccc(C(=O)NS(=O)(=O)c3ccc[nH]c3=O)c(Oc3c(C)cc(C)cc3C)n2)c1` [Compound 1143, N-[(2-oxo-1H-pyridin-3-yl)sulfonyl]-6-(3-propoxyphenyl)-2-(2,4,6-trimethylphenoxy)pyridine-3-carboxamide], the EC30 result was “++ (“++” means between 3 uM and 10 uM)”.

Consider `C#Cc1cccc(Oc2cccc(S(=O)(=O)NC(=O)c3cccnc3N3CC(C)CC3(C)C)n2)c1` (stereo not drawn) [Compound 1782, N—[[6-(3-ethynylphenoxy)-2-pyridyl]sulfonyl]-2-(2,2,4-trimethylpyrrolidin-1-yl)pyridine-3-carboxamide], for which the EC30 entry is recorded as “+++ (“+++” means <3 uM)”.

Turning to `CC(C)COc1cc(-c2ccc(C(=O)NS(=O)(=O)c3cccc(N)n3)c(N3CC(C)CC3(C)C)n2)ccn1` (stereo not drawn) [Compound 1192, N-[(6-amino-2-pyridyl)sulfonyl]-6-(2-isobutoxy-4-pyridyl)-2-(2,2,4-trimethylpyrrolidin-1-yl)pyridine-3-carboxamide], the EC30 entry is on record as “+++ (“+++” means <3 uM)”.

With `Cc1cc(C)c(Oc2nc(C)ccc2C(=O)NS(=O)(=O)c2cccc(N)n2)c(C)c1` [Compound 1137, N-[(6-amino-2-pyridyl)sulfonyl]-6-methyl-2-(2,4,6-trimethylphenoxy)pyridine-3-carboxamide], the EC30 entry is “++ (“++” means between 3 uM and 10 uM)”.

As for `CC(C)COc1cc(F)cc(-c2ccc(C(=O)NS(=O)(=O)c3cccc(N)n3)c(OCCCc3cccnc3)n2)c1` [Compound 1691, N-[(6-amino-2-pyridyl)sulfonyl]-6-(3-fluoro-5-isobutoxy-phenyl)-2-[3-(3-pyridyl)propoxy]pyridine-3-carboxamide], the EC30 entry was “++ (“++” means between 3 uM and 10 uM)”.

As to `CC(C)COc1cc(F)cc(-c2ccc(C(=O)NS(=O)(=O)c3nc(N)cs3)c(N3CC(C)CC3(C)C)n2)c1` (stereo not drawn) [Compound 842, N-(4-aminothiazol-2-yl)sulfonyl-6-(3-fluoro-5-isobutoxy-phenyl)-2-(2,2,4-trimethylpyrrolidin-1-yl)pyridine-3-carboxamide], the EC30 result is “+++ (“+++” means <3 uM)”.

`CCOc1cc(F)ccc1-c1ccc(C(=O)NS(=O)(=O)c2ccc[nH]c2=O)c(N2C[C@@H](C)CC2(C)C)n1` [Compound 1867, 6-(2-ethoxy-4-fluoro-phenyl)-N-[(2-oxo-1H-pyridin-3-yl)sulfonyl]-2-[(4S)-2,2,4-trimethylpyrrolidin-1-yl]pyridine-3-carboxamide]: the EC30 entry was “+++ (“+++” means <3 uM)”.

In the case of `C[C@@H]1CN(c2nc([C@H]3CC[C@H](C(F)(F)F)CC3)ccc2C(=O)NS(=O)(=O)c2ccc[nH]c2=O)C(C)(C)C1` [Compound 1710, N-[(2-oxo-1H-pyridin-3-yl)sulfonyl]-6-[4-(trifluoromethyl)cyclohexyl]-2-[(4S)-2,2,4-trimethylpyrrolidin-1-yl]pyridine-3-carboxamide], the EC30 result is on record as “+++ (“+++” means <3 uM)”.

As for `COCCOCc1cccc(-c2cnc(N3CC(C)CC3(C)C)c(C(=O)NS(=O)(=O)c3cccc(N)n3)c2)c1` (stereo not drawn) [Compound 1943, N-[(6-amino-2-pyridyl)sulfonyl]-5-[3-(2-methoxyethoxymethyl)phenyl]-2-(2,2,4-trimethylpyrrolidin-1-yl)pyridine-3-carboxamide], the EC30 result is “++ (“++” means between 3 uM and 10 uM)”.

Take `Cc1cc(F)ccc1Oc1nc(C(C)(C)C)ccc1C(=O)NS(=O)(=O)c1cccc(N)n1` [Compound 1104, N-[(6-amino-2-pyridyl)sulfonyl]-6-tert-butyl-2-(4-fluoro-2-methyl-phenoxy)pyridine-3-carboxamide]: the EC30 result was “+++ (“+++” means <3 uM)”.

Consider `C=C(C)c1ccc(C(=O)NS(=O)(=O)c2cccc(N)n2)c(N2C[C@@H](C)CC2(C)C)n1` [Compound 1423, N-[(6-amino-2-pyridyl)sulfonyl]-6-isopropenyl-2-[(4S)-2,2,4-trimethylpyrrolidin-1-yl]pyridine-3-carboxamide], for which the EC30 entry was “+++ (“+++” means <3 uM)”.

For `CC1CN(c2ncccc2C(=O)NS(=O)(=O)c2cccc(NCc3ccccc3)n2)C(C)(C)C1` (stereo not drawn) [Compound 1938, N—[[6-(benzylamino)-2-pyridyl]sulfonyl]-2-(2,2,4-trimethylpyrrolidin-1-yl)pyridine-3-carboxamide], the EC30 entry was “+++ (“+++” means <3 uM)”.

Consider `CC(C)Oc1ccc(-c2ccc(C(=O)NS(=O)(=O)c3cccnc3N)c(N3C[C@H](C)CC3(C)C)n2)cn1` [Compound 1240, N-[(2-amino-3-pyridyl)sulfonyl]-6-(6-isopropoxy-3-pyridyl)-2-[(4R)-2,2,4-trimethylpyrrolidin-1-yl]pyridine-3-carboxamide], for which the EC30 entry was “+++ (“+++” means <3 uM)”.

For the compound `CC(C)Oc1ccc(-c2ccc(C(=O)NS(=O)(=O)c3cccc(N)n3)c(N3CCC(Oc4ccccc4)CC3)n2)cn1` [Compound 1080, N-[(6-amino-2-pyridyl)sulfonyl]-6-(6-isopropoxy-3-pyridyl)-2-(4-phenoxy-1-piperidyl)pyridine-3-carboxamide], the EC30 entry was “+++ (“+++” means <3 uM)”.

For `CCOc1cc(C)cc(-c2ccc(C(=O)NS(=O)(=O)c3ccc[nH]c3=O)c(Oc3c(C)cc(C)cc3C)n2)n1` [Compound 1768, 6-(6-ethoxy-4-methyl-2-pyridyl)-N-[(2-oxo-1H-pyridin-3-yl)sulfonyl]-2-(2,4,6-trimethylphenoxy)pyridine-3-carboxamide], the EC30 entry was “++ (“++” means between 3 uM and 10 uM)”.

Regarding `Cc1cc(C)c(Oc2nc(C3CCOC(C)(C)C3)ccc2C(=O)NS(=O)(=O)c2cccc(N)n2)c(C)c1` (stereo not drawn) [Compound 1466, N-[(6-amino-2-pyridyl)sulfonyl]-6-(2,2-dimethyltetrahydropyran-4-yl)-2-(2,4,6-trimethylphenoxy)pyridine-3-carboxamide], the EC30 entry is “++ (“++” means between 3 uM and 10 uM)”.

As for `C[C@@H]1CN(c2nc(C3CCCOC3)ccc2C(=O)NS(=O)(=O)c2cccc(N)n2)C(C)(C)C1` (stereo partly drawn) [Compound 1632, N-[(6-amino-2-pyridyl)sulfonyl]-6-tetrahydropyran-3-yl-2-[(4S)-2,2,4-trimethylpyrrolidin-1-yl]pyridine-3-carboxamide], the EC30 entry was “++ (“++” means between 3 uM and 10 uM)”.

With `Cc1cc(C)c(Oc2nc(-c3cc(F)cc(OC(C)C)c3)ccc2C(=O)NS(=O)(=O)c2cc[nH]n2)c(C)c1` [Compound 914, 6-(3-fluoro-5-isopropoxy-phenyl)-N-(1H-pyrazol-3-ylsulfonyl)-2-(2,4,6-trimethylphenoxy)pyridine-3-carboxamide], the EC30 result is “+++ (“+++” means <3 uM)”.

With `CC(C)COc1cc(F)cc(-c2ccc(C(=O)NS(=O)(=O)c3ccn[nH]3)c(N3CCCC(C)(C)C3)n2)c1` [Compound 1005, 2-(3,3-dimethyl-1-piperidyl)-6-(3-fluoro-5-isobutoxy-phenyl)-N-(1H-pyrazol-5-ylsulfonyl)pyridine-3-carboxamide], the EC30 result was “+++ (“+++” means <3 uM)”.

The record behind these values is US10758534B2 (Vertex Pharmaceuticals Incorporated, priority 2014, dated 2020).
